Data as given in patent US12268666B2, “Spray-dried dispersions, formulations, and polymorphs of (S)-5-amino-3-(4-((5-fluoro-2-methoxybenzamido)methyl)phenyl)-1-(1,1,1-trifluoropropan-2-yl)-1H-pyrazole-4-carboxamide” (Loxo Oncology, Inc., priority 2018, dated 2025).

Tests used:
[1] = molecular target: T1, BTK wild type (Homo sapiens, UniProt Q06187); test: Y223 autophosphorylation in HEK293 cells stably expressing BTK; format: cell-based; details: 2 hr treatment, signal normalized to total BTK
T1 construct: expressed in transfected cells; host or cells: HEK293
Method: (§1) HEK293 cell lines stably expressing BTK wild type and the mutant form C481S are generated using standard transfection methods. For assessment of cellular inhibition potency, cells are grown in DMEM +10% Fetal Bovine Serum (FBS)+1 μg/ml puromycin (complete growth media) at 37° C. in a CO2 incubator. Cells are harvested according to standard protocols using TRYPLE™ (Gibco #12604-013), counted, resuspended in complete growth media, and added to 6 well assay plates at 4×10 ^5 cell/well in 2 mL. Plates are incubated overnight at 37° C. with 5% CO2. […] All samples are tested in triplicate. Following compound incubation, the growth medium is discarded, cells are washed with DPBS (1×) (Gibco #14190-144) and lysed in 1 mL of […]™ M (Sigma #C2978) containing 1× Halt phosphatase and protease inhibitor cocktails (Pierce #78442). Plates are placed on ice for 1 hr with gentle agitation and stored at −80° C. overnight. The next day, cell lysates are placed in 1.5 mL tubes and cleared by centrifugation at 16,000×g for 10 min at 4° C. Supernatants are quantified by BCA (Pierce #23225) and stored at −80° C. Samples are analyzed by Simple Western (Protein Simple) with anti-phospho-BTK (Y223) (Cell Signaling Technologies (CST) #5082) and anti-BTK (CST #8547) (FIGS. 10A and 10B). β-actin is used as a loading control and detected by regular Western blot with an anti-3-actin antibody (CST #4970).

[2] = molecular target: T2, BTK C481S (Homo sapiens, UniProt Q06187, C481S); test: Y223 autophosphorylation in HEK293 cells stably expressing BTK C481S; format: cell-based; set-up: expressed in transfected cells; host or cells: HEK293; details: C481S mutant, 2 hr treatment, signal normalized to total BTK
Method: as §1

[3] = molecular target: 371 kinases; test: Kinase selectivity assay (Reaction Biology Wild-Type Kinase Profiler); format: biochemical; details: 1.0 μM compound; ATP close to Km for each enzyme
Method: (§2) Each assay is performed at an ATP concentration close to the Km for each enzyme. […] After co-incubation with a serial dilution of the compound of Formula I, the quantity of ^33P incorporated into a peptide substrate is measured and the data analyzed using standard curve fitting methods.

[4] = molecular target: T3, CSK (Homo sapiens, UniProt P41240); test: Kinase selectivity, radiolabeled ATP activity assay; format: biochemical
T3 construct: purchased Reaction Biology
Method: (§3) Each assay is performed at an ATP concentration close to the Km for each enzyme. […] BRK, CSK, ERBB4, FYN, MEK1, MEK2, TXK, and YES1 The inhibitory activity of the compound of Formula I on the enzymatic activity of these kinases and TEC is determined using a radiolabeled ATP activity assay conducted with an ATP concentration near the ATP Km for each enzyme. After co-incubation with a serial dilution of the compound of Formula I, the quantity of ^33P incorporated into a peptide substrate is measured and the data analyzed using standard curve fitting methods.

[5] = molecular target: T4, BRK (Homo sapiens, UniProt Q13882); test: as above; format: biochemical
T4 construct: purchased Reaction Biology
Method: as §3

[6] = molecular target: T5, ERBB4 (Homo sapiens, UniProt Q15303); test: as above; format: biochemical
T5 construct: purchased Reaction Biology
Method: as §3

[7] = molecular target: T6, MEK1 (Homo sapiens, UniProt Q02750); test: as above; format: biochemical
T6 construct: purchased Reaction Biology
Method: as §3

[8] = molecular target: T7, FYN (Homo sapiens, UniProt P06241); test: as above; format: biochemical
T7 construct: purchased Reaction Biology
Method: as §3

[9] = molecular target: T2, BTK C481S; test: BTK activity assay, [33P]-ATP incorporation into poly-EY; format: biochemical; set-up: against full-length wild type (WT) and mutant human BTK enzymes
Method: The activity of the compound of Formula I against full-length wild type (WT) and mutant human BTK enzymes is determined by monitoring the incorporation [^33P]-PO4 from [γ-^33P]-ATP into poly-glutamic acid-tyrosine (poly-EY) peptide substrate. The reaction mixtures each contained polyhistidine-tagged BTK enzyme, poly-EY and BTK inhibitor at the appropriate concentrations. The reaction mixtures are incubated for 20 minutes at room temperature after which [[γ-^33P]-ATP (radiochemical concentration 10 μCi/μL) at 10 μM or the ATP Km concentration for each enzyme is added. After 2 hours of incubation at room temperature, the radiolabeled peptide substrate is captured, and incorporated radioactivity is quantified.
as §2

[10] = Kinetic solubility in FaSSGF, FaSSIF and FeSSIF media; format: physicochemical; details: kinetic from dmso stock
Method: The solubility of the compound of Formula I is also tested under conditions that simulate gut fluids (Fasted State Simulated Intestinal Fluid [FaSSIF], Fed State Simulated Intestinal Fluid [FeSSIF], and Fasted State Simulated Gastric Fluid [FaSSGF]) as shown in Table 9.

[11] = system: OCI-Ly10 human B-cell lymphoma cell line xenograft; test: Tumor growth inhibition in OCI-Ly10 xenografts; format: in vivo, male NOD SCID mice; details: for tumor growth during the dosing period: oral, 28 days
Method: A total of 65 male NOD-SCIO mice are used for the study. At the start of the study the animals are aged 6-8 weeks and weighed approximately 21-27 g. Animals are housed in IVC cages (up to 5 per cage) with individual mice identified by tail marking. All animals are allowed free access to a standard certified commercial diet and sanitized water during the study. The holding room is maintained under standard conditions: 20-24° C., 40-70% humidity and a 12 hr light/dark cycle. Animals are randomly assigned to treatment groups. OCI-Lyl0 cells are implanted subcutaneously into the flanks of male NOD SCID mice and allowed to grow to a volume of approximately 150-200 mm^3. […] The formulation used is 0.5% hydroxypropyl methylcellulose. The dosing volume is 10 mL/kg. An individual animal's dose is calculated from the bodyweight recorded on the day of dosing. Animals are dosed for 28 days. Bodyweight and health observation of animals is recorded daily for the duration of dosing.
Tumor volume is measured three times per week during the study.

[12] = 1.0 μM compound, ATP close to Km, read-out: Percent of Control (POC)
[13] = FaSSGF (Fasted State Simulated Gastric Fluid), fassgf or other biorelevant, pH 1.6 FaSSGF
[14] = FaSSIF (Fasted State Simulated Intestinal Fluid), pH 6.5 FaSSIF
[15] = FeSSIF (Fed State Simulated Intestinal Fluid), pH 6.5 FeSSIF

T2 sequence (Q06187 whole entry C481S): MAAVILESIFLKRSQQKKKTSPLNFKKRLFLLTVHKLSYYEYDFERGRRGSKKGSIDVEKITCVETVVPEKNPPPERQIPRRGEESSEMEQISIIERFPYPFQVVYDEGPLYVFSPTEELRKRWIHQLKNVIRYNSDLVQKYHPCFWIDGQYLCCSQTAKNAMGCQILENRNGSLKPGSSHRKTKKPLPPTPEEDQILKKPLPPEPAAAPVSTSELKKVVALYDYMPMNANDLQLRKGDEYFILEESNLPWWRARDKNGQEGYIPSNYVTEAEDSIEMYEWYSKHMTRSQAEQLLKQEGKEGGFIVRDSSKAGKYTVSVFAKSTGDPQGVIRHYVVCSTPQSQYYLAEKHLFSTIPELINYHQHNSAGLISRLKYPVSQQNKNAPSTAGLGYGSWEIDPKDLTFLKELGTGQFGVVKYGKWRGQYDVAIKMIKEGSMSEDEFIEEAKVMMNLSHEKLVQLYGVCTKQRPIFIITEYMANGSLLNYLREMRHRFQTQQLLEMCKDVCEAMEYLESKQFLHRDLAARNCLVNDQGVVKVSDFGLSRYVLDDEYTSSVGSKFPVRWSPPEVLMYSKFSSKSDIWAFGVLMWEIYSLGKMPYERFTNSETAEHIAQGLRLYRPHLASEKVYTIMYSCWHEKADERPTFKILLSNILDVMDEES
T4 sequence (Q13882 whole entry): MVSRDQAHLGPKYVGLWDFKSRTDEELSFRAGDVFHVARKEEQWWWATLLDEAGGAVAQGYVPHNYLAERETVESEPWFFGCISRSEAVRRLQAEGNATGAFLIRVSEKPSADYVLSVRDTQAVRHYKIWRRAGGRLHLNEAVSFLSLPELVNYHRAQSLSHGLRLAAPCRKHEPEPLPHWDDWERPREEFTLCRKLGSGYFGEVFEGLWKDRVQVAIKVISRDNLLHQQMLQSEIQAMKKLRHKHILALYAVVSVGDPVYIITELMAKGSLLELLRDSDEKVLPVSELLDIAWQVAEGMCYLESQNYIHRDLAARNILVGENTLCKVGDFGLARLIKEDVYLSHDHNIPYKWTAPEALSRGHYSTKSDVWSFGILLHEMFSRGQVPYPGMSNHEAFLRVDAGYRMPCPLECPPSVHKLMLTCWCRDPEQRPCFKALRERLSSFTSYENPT
T7 sequence (P06241 whole entry): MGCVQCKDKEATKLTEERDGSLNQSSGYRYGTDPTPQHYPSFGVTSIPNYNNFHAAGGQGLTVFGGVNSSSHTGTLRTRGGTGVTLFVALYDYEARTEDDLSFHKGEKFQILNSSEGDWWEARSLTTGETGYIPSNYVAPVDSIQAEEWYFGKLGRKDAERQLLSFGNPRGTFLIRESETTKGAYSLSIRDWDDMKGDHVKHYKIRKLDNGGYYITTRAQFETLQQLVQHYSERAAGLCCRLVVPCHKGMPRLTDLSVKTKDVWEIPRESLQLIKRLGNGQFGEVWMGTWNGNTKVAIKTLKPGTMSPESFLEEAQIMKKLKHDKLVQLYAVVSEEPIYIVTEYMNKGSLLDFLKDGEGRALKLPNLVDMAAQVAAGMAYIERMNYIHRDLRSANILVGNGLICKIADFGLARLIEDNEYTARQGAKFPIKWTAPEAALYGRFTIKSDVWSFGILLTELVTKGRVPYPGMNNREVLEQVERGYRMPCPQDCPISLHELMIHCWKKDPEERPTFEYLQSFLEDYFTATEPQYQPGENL
T5 sequence (Q15303 26-1308): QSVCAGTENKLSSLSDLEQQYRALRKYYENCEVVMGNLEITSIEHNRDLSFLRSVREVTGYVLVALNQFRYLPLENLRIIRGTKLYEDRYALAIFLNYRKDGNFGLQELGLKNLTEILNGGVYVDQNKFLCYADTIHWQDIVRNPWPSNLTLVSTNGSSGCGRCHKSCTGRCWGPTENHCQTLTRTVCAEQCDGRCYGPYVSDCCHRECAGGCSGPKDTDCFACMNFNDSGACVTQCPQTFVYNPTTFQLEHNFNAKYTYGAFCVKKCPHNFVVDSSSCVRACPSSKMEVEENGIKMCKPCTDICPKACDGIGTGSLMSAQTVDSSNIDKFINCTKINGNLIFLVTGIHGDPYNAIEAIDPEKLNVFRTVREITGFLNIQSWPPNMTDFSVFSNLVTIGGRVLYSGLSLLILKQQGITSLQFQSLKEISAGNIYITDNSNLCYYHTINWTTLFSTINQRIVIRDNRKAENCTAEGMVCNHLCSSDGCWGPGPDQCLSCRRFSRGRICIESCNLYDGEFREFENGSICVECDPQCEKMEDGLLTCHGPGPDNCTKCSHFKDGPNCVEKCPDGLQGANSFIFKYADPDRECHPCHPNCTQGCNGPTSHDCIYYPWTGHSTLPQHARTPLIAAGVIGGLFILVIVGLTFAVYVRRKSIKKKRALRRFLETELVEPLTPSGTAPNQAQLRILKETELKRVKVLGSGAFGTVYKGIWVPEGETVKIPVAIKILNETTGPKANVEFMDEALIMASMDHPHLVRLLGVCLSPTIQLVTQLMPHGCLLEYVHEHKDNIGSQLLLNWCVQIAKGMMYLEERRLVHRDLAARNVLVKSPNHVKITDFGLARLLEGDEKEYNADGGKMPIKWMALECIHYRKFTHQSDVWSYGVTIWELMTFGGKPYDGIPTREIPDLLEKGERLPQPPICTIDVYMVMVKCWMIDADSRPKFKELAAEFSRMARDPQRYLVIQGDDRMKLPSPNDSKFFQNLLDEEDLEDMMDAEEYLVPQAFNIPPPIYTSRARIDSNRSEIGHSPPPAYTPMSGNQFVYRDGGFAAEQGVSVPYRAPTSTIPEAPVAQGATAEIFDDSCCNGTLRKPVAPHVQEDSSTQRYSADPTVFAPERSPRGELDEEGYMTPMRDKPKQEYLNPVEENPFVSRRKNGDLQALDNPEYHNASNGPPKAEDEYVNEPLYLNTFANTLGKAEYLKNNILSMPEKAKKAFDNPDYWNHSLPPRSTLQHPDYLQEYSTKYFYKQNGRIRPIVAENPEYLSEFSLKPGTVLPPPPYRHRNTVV
T3 sequence (P41240 whole entry): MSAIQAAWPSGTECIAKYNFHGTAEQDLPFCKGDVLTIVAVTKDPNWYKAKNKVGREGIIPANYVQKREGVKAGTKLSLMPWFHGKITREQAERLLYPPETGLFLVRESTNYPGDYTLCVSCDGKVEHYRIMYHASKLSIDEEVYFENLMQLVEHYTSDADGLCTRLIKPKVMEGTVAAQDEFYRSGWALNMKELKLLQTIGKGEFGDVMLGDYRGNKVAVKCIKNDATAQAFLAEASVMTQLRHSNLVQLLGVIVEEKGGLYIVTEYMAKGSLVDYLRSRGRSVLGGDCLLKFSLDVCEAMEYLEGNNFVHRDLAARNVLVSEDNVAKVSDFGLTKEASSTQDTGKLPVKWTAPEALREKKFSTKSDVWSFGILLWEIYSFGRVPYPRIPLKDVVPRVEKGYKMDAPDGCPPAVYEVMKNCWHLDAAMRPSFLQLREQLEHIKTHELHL
T6 sequence (Q02750 whole entry): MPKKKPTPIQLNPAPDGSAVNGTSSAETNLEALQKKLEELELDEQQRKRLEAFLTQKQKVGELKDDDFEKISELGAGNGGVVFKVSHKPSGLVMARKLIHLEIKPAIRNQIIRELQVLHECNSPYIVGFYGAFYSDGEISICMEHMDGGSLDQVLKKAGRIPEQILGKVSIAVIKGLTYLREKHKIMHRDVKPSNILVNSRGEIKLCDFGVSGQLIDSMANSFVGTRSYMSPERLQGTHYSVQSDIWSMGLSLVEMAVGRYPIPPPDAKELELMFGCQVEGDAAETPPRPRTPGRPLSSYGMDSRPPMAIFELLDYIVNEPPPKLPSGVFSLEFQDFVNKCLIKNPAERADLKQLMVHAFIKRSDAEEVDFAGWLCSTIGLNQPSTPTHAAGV
T1 sequence (Q06187 whole entry): as the sequence (Q06187 whole entry C481S) above, with S481C counted along it

With `COc1ccc(F)cc1C(=O)NCc1ccc(-c2nn([C@@H](C)C(F)(F)F)c(N)c2C(N)=O)cc1` [compound of Formula I, (S)-5-amino-3-(4-((5-fluoro-2-methoxybenzamido)methyl)phenyl)-1-(1,1,1-trifluoropropan-2-yl)-1H-pyrazole-4-carboxamide] the IC50 [1] was 8.6 ± 0.3 nM, the IC50 [2] was 8.8 ± 1.8 nM and the “kinases other than BTK with Percent of Control (POC) values less than 50” value [3] was “only eight of 371 kinases other than BTK”. It also gave a remaining activity at 1 µM [4, 12] of less than 50%, an IC50 ([4]; ATP near Km) of 552 nM and a remaining activity at 1 µM [5, 12] of less than 50%. The IC50 ([5]; ATP near Km) was 54.2 nM, the remaining activity at 1 µM [6, 12] was less than 50% and the IC50 ([6]; ATP near Km) was 13.2 nM. For the same molecule, the remaining activity at 1 µM [7, 12] was less than 50%, the IC50 ([7]; ATP near Km) was 147 nM and the remaining activity at 1 µM [8, 12] was less than 50%. It also gave an IC50 ([8]; ATP near Km) of 1710 nM, an IC50 ([9]; 10 μM ATP, read-out: IC50) of 0.29 nM and an IC50 ([9]; ATP at Km concentration, read-out: IC50 value) of 1.42 nM. It also gave a solubility kinetic at 4 h [10, 13] of 22 µg/mL, a solubility kinetic at 24 h [10, 13] of 24 µg/mL and a solubility kinetic at 4 h [10, 14] of 23 µg/mL. It also gave a solubility kinetic at 24 h [10, 14] of 20 µg/mL, a solubility kinetic at 4 h [10, 15] of 44 µg/mL and a solubility kinetic at 24 h [10, 15] of 47 µg/mL. For the same molecule, the “tumor growth during the dosing period” value ([11]; 10 mg/kg BID) was “inhibition of tumor growth”, the “tumor size compared with ibrutinib-treated animals” value ([11]; 10 mg/kg BID, p=0.0008, ANOVA with Tukey post-hoc test) was “significantly smaller than those from animals treated with ibrutinib” and the “tumor growth during the dosing period” value ([11]; 50 mg/kg BID) was “inhibition of tumor growth”. For the same molecule, the “tumor size compared with ibrutinib-treated animals” value ([11]; 50 mg/kg BID, p<0.0001, ANOVA with Tukey post-hoc test) was “significantly smaller than those from animals treated with ibrutinib” and the “tumor growth after dosing had stopped” value ([11]; after the 28-day dosing period) was “maintained even after dosing had stopped”.
